In general, IC50 refers to the concentration that gives 50% inhibition.

IC50 data for 45 molecules are collected here from patent US20240360139A1, “BLOOD BRAIN BARRIER PENETRATING SELECTIVE INHIBITORS OF ROCK2 PROTEIN KINASES AND USES THEREOF” (GENOSCO Inc., priority 2023, published 2024).

Assay [1] has as its target T1, Recombinant ROCK1 (amino acids 1-477) (Homo sapiens, UniProt Q13464).
T1 construct: Recombinant ROCK1 (amino acids 1-477)
In words: ROCK inhibition assay, LANCE Ultra TR-FRET (ROCK1). It counts as biochemical. Conditions: 1 mM of ATP. The procedure: (§1) Kinase IC50 was determined through an in vitro assay based on LANCE Ultra TR-FRET (Time-Resolved Fluorescence Resonance Energy Transfer) homogeneous technologies method 5 (Perkin Elmer). Recombinant ROCK1 (amino acids 1-477) and ROCK2 (amino acids 5-554) proteins were purchased from Carna Biosciences and SignalChem. Compound activities were measured by Envision and IC50s were calculated. The assays were performed in white LUMITRAC™ 200 96 well half-area microplates from Greiner Bio-One. The kinase reaction buffer consisted of 50 mM HEPES pH 7.5, 1 mM EGTA, 10 mM MgCl2, 2 mM DTT and 0.01% 10 Tween-20. Kinases were incubated with 50 nM (ULight-CREBtide) substrate in the presence of 1 mM (ROCK1) or 1 mM (ROCK2) of ATP. The kinase reaction was carried out for 1 hour before addition of a stopping buffer to a final of 10 mM EDTA and 0.6 nM of LANCE Ultra Europium anti-phospho-CREB (Ser133) antibody (PerkinElmer TRF0200) in LANCE detection buffer. All assay incubations were performed at room temperature, and the microplates were sealed with polyester film during that time. The reaction was incubated for 1 hour, and the signal was read in Envision in TR-FRET mode (excitation at 320 nm and emission at 615/665 nm).
(§2) As used herein, a way to describe potency of inhibitory activity (nM) is a value of inhibitory activity at 50% (IC50).

The target of assay [2] is T2, Recombinant ROCK2 (amino acids 5-554) (Homo sapiens, UniProt O75116).
T2 construct: ROCK2 (amino acids 5-554)
T2 sequence (O75116 5-554): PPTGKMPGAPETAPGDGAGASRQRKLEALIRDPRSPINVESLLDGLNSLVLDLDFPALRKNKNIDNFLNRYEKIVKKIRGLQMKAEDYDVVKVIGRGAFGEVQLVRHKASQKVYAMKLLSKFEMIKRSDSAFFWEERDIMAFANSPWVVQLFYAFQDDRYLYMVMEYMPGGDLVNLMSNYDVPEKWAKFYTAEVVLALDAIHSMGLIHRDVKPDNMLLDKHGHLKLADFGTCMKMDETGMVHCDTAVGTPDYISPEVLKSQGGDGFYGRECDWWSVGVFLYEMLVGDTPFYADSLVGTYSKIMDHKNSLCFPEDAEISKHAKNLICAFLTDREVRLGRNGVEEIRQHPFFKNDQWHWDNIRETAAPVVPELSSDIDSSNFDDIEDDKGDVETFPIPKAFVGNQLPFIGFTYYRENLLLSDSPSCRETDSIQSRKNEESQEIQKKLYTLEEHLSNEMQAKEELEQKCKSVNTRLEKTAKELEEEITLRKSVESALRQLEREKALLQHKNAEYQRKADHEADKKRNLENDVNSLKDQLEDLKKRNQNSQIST
In words: ROCK inhibition assay, LANCE Ultra TR-FRET (ROCK2). The class given is biochemical. Conditions: 1 mM of ATP. The procedure: as §1, §2

T1 sequence (Q13464 1-477): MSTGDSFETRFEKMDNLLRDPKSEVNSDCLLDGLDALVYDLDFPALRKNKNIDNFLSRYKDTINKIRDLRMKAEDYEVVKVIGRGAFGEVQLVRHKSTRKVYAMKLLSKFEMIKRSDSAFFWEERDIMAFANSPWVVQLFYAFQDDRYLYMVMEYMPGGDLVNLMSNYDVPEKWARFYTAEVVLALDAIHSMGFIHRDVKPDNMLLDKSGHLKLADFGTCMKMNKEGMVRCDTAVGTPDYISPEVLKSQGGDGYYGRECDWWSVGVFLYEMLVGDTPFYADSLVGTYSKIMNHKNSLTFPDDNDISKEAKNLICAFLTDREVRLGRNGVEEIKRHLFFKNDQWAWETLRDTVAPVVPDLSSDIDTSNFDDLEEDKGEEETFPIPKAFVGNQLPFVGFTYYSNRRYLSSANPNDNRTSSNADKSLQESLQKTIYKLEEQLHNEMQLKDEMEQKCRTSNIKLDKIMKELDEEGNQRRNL

As for `CCN(C)CCn1cc(C(=O)[C@@H]2COc3ccc(OC)cc3C2)c2ccc(-c3cn[nH]c3Cl)cc21` [Compound 3-26], the values for the concentration for half-maximal inhibition (IC50) in assay [1] and in assay [2] were > 501 nM and < 20 nM, respectively.

In the case of `CCN(C)CCn1cc(C(=O)[C@@H]2COc3ccc(OC)cc3C2)c2ccc(-c3cn[nH]c3Cl)cc21` [Compound 3-28], the concentration for half-maximal inhibition (IC50) in assay [1] was > 501 nM; in assay [2], 21 to 200 nM.

Regarding `CCN(C)CCn1cc(C(=O)C2COc3ccc(OC)cc3C2)c2ccc(-c3cn[nH]c3F)cc21` (stereo not drawn) [Compound 3-30], the results for the half-inhibitory concentration (IC50) in assay [1] and in assay [2] were 201 to 500 nM and 21 to 200 nM, respectively.

Take `COc1[nH]ncc1-c1ccc2c(C(=O)C3COc4ccc(Cl)cc4C3)cn(CC3(N)CC3)c2c1` (stereo not drawn) [Compound 4-1, [1-[(1-aminocyclopropyl)methyl]-6-(5-methoxy-1H-pyrazol-4-yl)indol-3-yl]-(6-chlorochroman-3-yl)methanone]: the IC50 in assay [1] and in assay [2] was < 20 nM in each case.

On to `NC1(Cn2cc(C(=O)C3COc4ccc(Cl)cc4C3)c3ccc(-c4cn[nH]c4Cl)cc32)CC1` (stereo not drawn) [Compound 4-2], for which the IC50 in assay [1] and in assay [2] was < 20 nM throughout.

In the case of `COc1ccc2c(c1)CC(C(=O)c1cn(CC3(N)CC3)c3cc(-c4cn[nH]c4Cl)ccc13)CO2` (stereo not drawn) [Compound 4-3], the IC50 in assay [1] was 21 to 200 nM; in assay [2], < 20 nM.

Take `NC1(Cn2cc(C(=O)C3COc4ccc(F)cc4C3)c3ccc(-c4cn[nH]c4Cl)cc32)CC1` (stereo not drawn) [Compound 4-4]: the IC50 was 21 to 200 nM in assay [1] and < 20 nM in assay [2].

As to `NC1(Cn2cc(C(=O)C3COc4ccc(Cl)cc4C3)c3ccc(-c4cn[nH]c4F)cc32)CC1` (stereo not drawn) [Compound 4-5], the IC50 in assay [1] and in assay [2] was < 20 nM each time.

`COc1ccc2c(c1)CC(C(=O)c1cn(CC3(N)CC3)c3cc(-c4cn[nH]c4F)ccc13)CO2` (stereo not drawn) [Compound 4-6]: the 50% inhibitory concentration (IC50) in assay [1] was 21 to 200 nM; in assay [2] it was < 20 nM.

Regarding `Cc1n[nH]cc1-c1ccc2c(C(=O)C3COc4ccc(Cl)cc4C3)cn(CCN(C)C)c2c1` (stereo not drawn) [Compound 5-1, (6-chlorochroman-3-yl)-[1-[2-(dimethylamino)ethyl]-6-(3-methyl-1H-pyrazol-4-yl)indol-3-yl]methanone], the values for the IC50 in assay [1] and in assay [2] were > 501 nM and 201 to 500 nM, respectively.

`CN(C)CCn1cc(C(=O)C2COc3ccccc3O2)c2ccc(-c3cn[nH]c3)cc21` (stereo not drawn) [Compound 5-2]: the values for the IC50 in assay [1] and in assay [2] were > 501 nM and 201 to 500 nM, respectively.

In the case of `COc1ccc2c(c1)C[C@H](C(=O)c1cn(CCN(C)C)c3cc(-c4c[nH]nc4Cl)ccc13)CO2` [Compound 5-4], the IC50 in assay [1] was > 501 nM; in assay [2], < 20 nM.

On to `COc1ccc2c(c1)C[C@@H](C(=O)c1cn(CCN(C)C)c3cc(-c4c[nH]nc4Cl)ccc13)CO2` [Compound 5-8], for which the IC50 in assay [1] was > 501 nM; in assay [2], < 20 nM.

Take `COc1ccc2c(c1)C[C@H](C(=O)c1cn(C[C@H]3CCN3CCF)c3cc(-c4c[nH]nc4Cl)ccc13)CO2` [Compound 5-9]: the values for the IC50 in assay [1] and in assay [2] were 201 to 500 nM and < 20 nM, respectively.

For the molecule `COc1ccc2c(c1)C[C@H](C(=O)c1cn(C[C@H]3CCN3CC(F)F)c3cc(-c4c[nH]nc4Cl)ccc13)CO2` [Compound 5-10], the values for the IC50 in assay [1] and in assay [2] were 201 to 500 nM and < 20 nM, respectively.

On to `COc1ccc2c(c1)C[C@H](C(=O)c1cn(C[C@H]3CCN3CC(F)(F)F)c3cc(-c4c[nH]nc4Cl)ccc13)CO2` [Compound 5-11], for which the IC50 in assay [1] and in assay [2] was 21 to 200 nM throughout.

For the molecule `CCN(CCF)CCn1cc(C(=O)[C@@H]2COc3ccc(OC)cc3C2)c2ccc(-c3c[nH]nc3Cl)cc21` [Compound 5-12], the half-maximal inhibitory concentration (IC50) was > 501 nM in assay [1] and 21 to 200 nM in assay [2].

Turning to `CCN(CCn1cc(C(=O)[C@@H]2COc3ccc(OC)cc3C2)c2ccc(-c3c[nH]nc3Cl)cc21)CC(F)F` [Compound 5-13], the figures for the IC50 in assay [1] and in assay [2] were 201 to 500 nM and < 20 nM, respectively.

Take `CCN(CCn1cc(C(=O)[C@@H]2COc3ccc(OC)cc3C2)c2ccc(-c3c[nH]nc3Cl)cc21)CC(F)(F)F` [Compound 5-14]: the IC50 in assay [1] is > 501 nM; in assay [2], 21 to 200 nM.

As for `COc1ccc2c(c1)C[C@H](C(=O)c1cn(CCN(CCF)CCF)c3cc(-c4c[nH]nc4Cl)ccc13)CO2` [Compound 5-15], the IC50 in assay [1] was > 501 nM; in assay [2], 21 to 200 nM.

In the case of `CN(C)CCn1cc(C(=O)C2COc3ccc(F)cc3O2)c2ccc(-c3c[nH]nc3Cl)cc21` (stereo not drawn) [Compound 5-16], the IC50 in assay [1] was > 501 nM; in assay [2], 201 to 500 nM.

As for `CN(C)CCn1cc(C(=O)C2COc3ccc(Cl)cc3O2)c2ccc(-c3c[nH]nc3Cl)cc21` (stereo not drawn) [Compound 5-17], the IC50 in assay [1] and in assay [2] was > 501 nM in each case.

For the molecule `CN(C)CCn1cc(C(=O)C2COc3ccccc3O2)c2ccc(-c3c[nH]nc3Cl)cc21` (stereo not drawn) [Compound 5-18], the IC50 in assay [1] and in assay [2] was 201 to 500 nM throughout.

As for `CN(C)CCn1cc(C(=O)C2COc3ccc(F)cc3C2)c2ccc(-c3c[nH]nc3Cl)cc21` (stereo not drawn) [Compound 5-19], the IC50 in assay [1] is > 501 nM; in assay [2], 21 to 200 nM.

`CN(C)CCn1cc(C(=O)[C@@H]2COc3ccc(F)cc3C2)c2ccc(-c3c[nH]nc3Cl)cc21` [Compound 5-21]: the IC50 in assay [1] is 201 to 500 nM; in assay [2] it was < 20 nM.

In the case of `CN(C)CCn1cc(C(=O)C2COc3ccc(Cl)cc3C2)c2ccc(-c3ccnn3C)cc21` (stereo not drawn) [Compound 5-24], the IC50 in assay [1] and in assay [2] was > 501 nM throughout.

Turning to `Cc1nocc1-c1ccc2c(C(=O)C3COc4ccc(F)cc4C3)cn(CCN(C)C)c2c1` (stereo not drawn) [Compound 5-26], the IC50 in assay [1] and in assay [2] was > 501 nM each time.

As for `COc1[nH]ncc1-c1ccc2c(C(=O)C3COc4ccc(Cl)cc4C3)cn(CCN(C)C)c2c1` (stereo not drawn) [Compound 5-28], the IC50 in assay [1] is > 501 nM; in assay [2], < 20 nM.

`COc1[nH]ncc1-c1ccc2c(C(=O)[C@@H]3COc4ccc(Cl)cc4C3)cn(CCN(C)C)c2c1` [Compound 5-30]: the IC50 was 201 to 500 nM in assay [1] and < 20 nM in assay [2].

For `CN(C)CCn1cc(C(=O)[C@H]2COc3ccc(Cl)cc3C2)c2ccc(-c3cn[nH]c3Cl)cc21` [Compound 5-35], the IC50 in assay [1] was > 501 nM; in assay [2], 201 to 500 nM.

`CN(C)CCn1cc(C(=O)[C@@H]2COc3ccc(Cl)cc3C2)c2ccc(-c3cn[nH]c3Cl)cc21` [Compound 5-36]: the values for the IC50 in assay [1] and in assay [2] were 201 to 500 nM and < 20 nM, respectively.

Turning to `COc1[nH]ncc1-c1ccc2c(C(=O)C3COc4ccc(F)cc4C3)cn(CCN(C)C)c2c1` (stereo not drawn) [Compound 5-37], the values for the IC50 in assay [1] and in assay [2] were > 501 nM and < 20 nM, respectively.

`COc1[nH]ncc1-c1ccc2c(C(=O)[C@@H]3COc4ccc(F)cc4C3)cn(CCN(C)C)c2c1` [Compound 5-38]: the IC50 in assay [1] is > 501 nM; in assay [2], < 20 nM.

With `COc1[nH]ncc1-c1ccc2c(C(=O)[C@H]3COc4ccc(F)cc4C3)cn(CCN(C)C)c2c1` [Compound 5-40], the IC50 in assay [1] is > 501 nM; in assay [2] it was 201 to 500 nM.

As for `COc1ccc2c(c1)CC(C(=O)c1cn(CCN(C)C)c3cc(-c4cn[nH]c4OC)ccc13)CO2` (stereo not drawn) [Compound 5-41], the IC50 in assay [1] lay within 201 to 500 nM; in assay [2], 21 to 200 nM.

On to `COc1[nH]ncc1-c1ccc2c(C(=O)C3COc4ccc(Cl)cc4O3)cn(CCN(C)C)c2c1` (stereo not drawn) [Compound 5-42], for which the IC50 is > 501 nM in assay [1] and 201 to 500 nM in assay [2].

For `CN(C)CCn1nc(C(=O)C2COc3ccccc3O2)c2ccc(-c3cn[nH]c3)cc21` (stereo not drawn) [Compound 5-43], the IC50 in assay [1] was > 501 nM; in assay [2], 21 to 200 nM.

Consider `CN(C)CCn1nc(C(=O)[C@@H]2COc3ccccc3O2)c2ccc(-c3cn[nH]c3)cc21` [Compound 5-44], for which the half-inhibitory concentration (IC50) lay in the range of 201 to 500 nM in assay [1] and 21 to 200 nM in assay [2].

`COc1n[nH]cc1-c1ccc2c(C(=O)C3COc4ccc(Cl)cc4C3)nn(CCN(C)C)c2c1` (stereo not drawn) [Compound 5-45]: the IC50 is > 501 nM in assay [1] and < 20 nM in assay [2].

With `COc1n[nH]cc1-c1ccc2c(C(=O)[C@@H]3COc4ccc(Cl)cc4C3)nn(CCN(C)C)c2c1` [Compound 5-46], the IC50 in assay [1] is 201 to 500 nM; in assay [2] it was < 20 nM.

Take `COc1n[nH]cc1-c1ccc2c(C(=O)[C@H]3COc4ccc(Cl)cc4C3)nn(CCN(C)C)c2c1` [Compound 5-47]: the IC50 in assay [1] is > 501 nM; in assay [2], 21 to 200 nM.

Take `CN(C)CCn1nc(C(=O)C2COc3ccc(Cl)cc3C2)c2ccc(-c3c[nH]nc3F)cc21` (stereo not drawn) [Compound 5-48]: the IC50 in assay [1] is > 501 nM; in assay [2], < 20 nM.

Consider `COc1ccc2c(c1)CC(C(=O)c1nn(CCN(C)C)c3cc(-c4c[nH]nc4OC)ccc13)CO2` (stereo not drawn) [Compound 5-49], for which the IC50 in assay [1] was 21 to 200 nM; in assay [2] it was < 20 nM.

In the case of `COc1ccc2c(c1)CC(C(=O)c1nn(CCN(C)C)c3cc(-c4c[nH]nc4Cl)ccc13)CO2` (stereo not drawn) [Compound 5-50], the IC50 in assay [1] is 21 to 200 nM; in assay [2], < 20 nM.

In the case of `COc1n[nH]cc1-c1ccc2c(C(=O)C3COc4ccc(F)cc4C3)nn(CCN(C)C)c2c1` (stereo not drawn) [Compound 5-51], the results for the IC50 in assay [1] and in assay [2] were > 501 nM and 21 to 200 nM, respectively.
